This note sets out measurements from ChEMBL document CHEMBL3351322, “Study the interactions between human serum albumin and two antifungal drugs: fluconazole and its analogue DTP” (Bioorg Med Chem Lett, 2014).

Holding throughout (format): ADME
Data set [1] concerns the target T1, Albumin (Homo sapiens, UniProt P02768). The experiment in a line: Binding affinity to human serum albumin at 0.4 to 5.6 x 10' -5 M by UV-Vis spectroscopy. The note with it: isolated protein.
The target in data set [2] is T1, Albumin. The data set is described as follows: Ratio of binding constant for human serum albumin in presence of Mn2+ to binding constant for human serum albumin in absence of metal ions.
Data set [3] has as its target T1, Albumin. The data set is described as follows: Ratio of binding constant for human serum albumin in presence of La3+ to binding constant for human serum albumin in absence of metal ions.
The target in data set [4] is T1, Albumin. The experiment in a line: Ratio of binding constant for human serum albumin in presence of Mg2+ to binding constant for human serum albumin in absence of metal ions.
Data set [5] concerns the target T1, Albumin. The experiment in a line: Ratio of binding constant for human serum albumin in presence of Zn2+ to binding constant for human serum albumin in absence of metal ions.
The target of data set [6] is T1, Albumin. The experiment in a line: Ratio of binding constant for human serum albumin in presence of Cr3+ to binding constant for human serum albumin in absence of metal ions.
The target in data set [7] is T1, Albumin. The experiment in a line: Ratio of binding constant for human serum albumin in presence of Fe3+ to binding constant for human serum albumin in absence of metal ions.
The target in data set [8] is T1, Albumin. The experiment in a line: Ratio of binding constant for human serum albumin in presence of Ba2+ to binding constant for human serum albumin in absence of metal ions.
Data set [9] concerns the target T1, Albumin. The experiment in a line: Ratio of binding constant for human serum albumin in presence of Ni2+ to binding constant for human serum albumin in absence of metal ions.
Data set [10] has as its target T1, Albumin. The data set is described as follows: Ratio of binding constant for human serum albumin in presence of Cu2+ to binding constant for human serum albumin in absence of metal ions.
In data set [11] the target is T1, Albumin. The data set is described as follows: Ratio of binding constant for human serum albumin in presence of Co2+ to binding constant for human serum albumin in absence of metal ions.

T1 sequence (P02768 whole entry): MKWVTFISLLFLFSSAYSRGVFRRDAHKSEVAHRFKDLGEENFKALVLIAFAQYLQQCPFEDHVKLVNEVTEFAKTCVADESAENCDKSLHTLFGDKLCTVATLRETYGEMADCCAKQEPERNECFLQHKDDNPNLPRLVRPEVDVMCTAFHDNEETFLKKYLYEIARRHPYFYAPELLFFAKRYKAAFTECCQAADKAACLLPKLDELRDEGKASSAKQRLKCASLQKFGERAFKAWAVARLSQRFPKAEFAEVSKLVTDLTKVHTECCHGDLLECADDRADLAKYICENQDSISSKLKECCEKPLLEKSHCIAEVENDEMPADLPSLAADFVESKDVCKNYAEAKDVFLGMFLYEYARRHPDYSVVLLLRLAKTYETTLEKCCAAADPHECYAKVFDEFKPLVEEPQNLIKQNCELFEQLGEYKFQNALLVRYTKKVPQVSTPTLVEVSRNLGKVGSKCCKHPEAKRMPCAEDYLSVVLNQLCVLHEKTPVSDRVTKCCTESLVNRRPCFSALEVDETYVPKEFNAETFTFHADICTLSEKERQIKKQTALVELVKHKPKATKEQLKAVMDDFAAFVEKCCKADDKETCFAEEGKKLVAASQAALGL

With `OC(Cn1cncn1)(Cn1cncn1)c1ccc(Cl)cc1Cl`, on Albumin [1], the result was Active.

For `OC(Cn1cncn1)(Cn1cncn1)c1ccc(F)cc1F` [FLUCONAZOLE], the Ratio at Albumin [2] is recorded as 0.868; at Albumin [3], 0.905; on Albumin [4], 1.081; on Albumin [5] it was 1.11; on Albumin [6], 0.866; on Albumin [7] it was 0.741. Also, the Ratio was 0.956 on Albumin [8], 0.857 on Albumin [9], 0.961 at Albumin [10] and 0.945 at Albumin [11]. Besides, on Albumin [1], the outcome was Active.
